# Source: ChEMBL document CHEMBL5042556, “Lead Optimization to Advance Protease-Activated Receptor-1 Antagonists in Early Discovery” (J Med Chem, 2022)
# pIC50: −log10 of the molar value.
# Assays:
# [1] = molecular target: T1, Proteinase-activated receptor 1 (Homo sapiens, UniProt P25116); assay: Antagonist activity at human PAR-1 expressed in HEK293 cells assessed as reduction in TRAP induced calcium signal at 3 uM by FLIPR analysis; format: functional, cell-based
# T1 sequence (P25116 whole entry): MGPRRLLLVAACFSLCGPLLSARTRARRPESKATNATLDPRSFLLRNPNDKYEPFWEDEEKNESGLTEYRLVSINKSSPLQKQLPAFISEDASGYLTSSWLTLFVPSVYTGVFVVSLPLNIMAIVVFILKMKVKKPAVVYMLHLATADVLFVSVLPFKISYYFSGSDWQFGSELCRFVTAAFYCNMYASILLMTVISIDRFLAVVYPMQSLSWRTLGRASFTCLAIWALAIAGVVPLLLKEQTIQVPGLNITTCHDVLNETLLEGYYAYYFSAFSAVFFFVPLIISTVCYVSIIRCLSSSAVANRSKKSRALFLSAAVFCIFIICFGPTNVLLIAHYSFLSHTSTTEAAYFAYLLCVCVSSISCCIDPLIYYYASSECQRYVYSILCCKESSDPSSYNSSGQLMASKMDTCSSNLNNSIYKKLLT
# [2] = molecular target: T2, Voltage-gated inwardly rectifying potassium channel KCNH2 (Homo sapiens, UniProt Q12809); assay: Inhibition of [35S]MK-499 binding to hERG expressed in HEK293 cells; format: toxicity, cell-based
# T2 sequence (Q12809 whole entry): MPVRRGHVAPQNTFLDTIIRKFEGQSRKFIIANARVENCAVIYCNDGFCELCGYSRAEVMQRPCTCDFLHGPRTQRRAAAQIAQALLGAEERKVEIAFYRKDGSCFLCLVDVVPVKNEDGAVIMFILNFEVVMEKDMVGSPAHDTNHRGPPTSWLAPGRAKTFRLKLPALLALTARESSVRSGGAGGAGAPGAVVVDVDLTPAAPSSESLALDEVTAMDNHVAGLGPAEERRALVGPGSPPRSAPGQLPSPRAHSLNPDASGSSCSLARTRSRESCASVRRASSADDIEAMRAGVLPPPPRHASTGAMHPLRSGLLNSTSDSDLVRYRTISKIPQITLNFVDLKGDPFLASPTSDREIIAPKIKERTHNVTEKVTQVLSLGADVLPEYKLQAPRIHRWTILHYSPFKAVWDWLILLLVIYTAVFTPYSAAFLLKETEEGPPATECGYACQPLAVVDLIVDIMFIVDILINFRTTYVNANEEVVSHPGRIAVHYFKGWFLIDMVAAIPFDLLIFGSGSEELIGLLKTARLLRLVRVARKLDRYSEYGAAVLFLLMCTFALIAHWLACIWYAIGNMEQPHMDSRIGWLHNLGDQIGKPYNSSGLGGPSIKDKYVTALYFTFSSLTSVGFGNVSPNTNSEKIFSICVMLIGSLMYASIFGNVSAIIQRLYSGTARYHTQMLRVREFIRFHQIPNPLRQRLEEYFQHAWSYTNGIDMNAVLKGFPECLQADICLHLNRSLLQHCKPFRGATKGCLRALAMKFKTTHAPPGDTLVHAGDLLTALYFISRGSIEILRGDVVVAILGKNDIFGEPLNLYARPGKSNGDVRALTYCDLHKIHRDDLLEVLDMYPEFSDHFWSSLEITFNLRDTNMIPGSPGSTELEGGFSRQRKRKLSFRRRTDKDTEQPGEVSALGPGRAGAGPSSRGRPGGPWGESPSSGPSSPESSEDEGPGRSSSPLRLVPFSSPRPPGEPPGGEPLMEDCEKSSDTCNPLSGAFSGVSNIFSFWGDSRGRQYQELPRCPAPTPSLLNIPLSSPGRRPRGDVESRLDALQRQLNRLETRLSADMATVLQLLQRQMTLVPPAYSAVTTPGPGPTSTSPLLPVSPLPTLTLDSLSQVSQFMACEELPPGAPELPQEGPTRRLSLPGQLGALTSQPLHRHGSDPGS
# [3] = MRT in rat at 0.5 mg/kg, iv; format: ADME, organism-based; conditions: in vivo
# [4] = MRT in cynomolgus monkey at 0.3 mg/kg, iv; format: ADME, organism-based, Macaca fascicularis; conditions: in vivo
# [5] = MRT in rat at 1 mg/kg, iv; format: ADME, organism-based; conditions: in vivo
# [6] = MRT in cynomolgus monkey at 0.3 mg/kg, po; format: ADME, organism-based, Macaca fascicularis; conditions: in vivo
# P-glycoprotein (ABCB1) = P-glycoprotein (ABCB1) (Homo sapiens, UniProt P08183); assay: Effect on human P-glycoprotein expressed in MDCK cells assessed as efflux ratio of apparent permeability across basolateral to apical side over apical to basolateral side (reference value: 0.6 to 0.8); format: ADME, cell-based, MDCKII-LE; conditions: MDCK-MDR1
# Chain of P-glycoprotein (ABCB1) (P08183 whole entry): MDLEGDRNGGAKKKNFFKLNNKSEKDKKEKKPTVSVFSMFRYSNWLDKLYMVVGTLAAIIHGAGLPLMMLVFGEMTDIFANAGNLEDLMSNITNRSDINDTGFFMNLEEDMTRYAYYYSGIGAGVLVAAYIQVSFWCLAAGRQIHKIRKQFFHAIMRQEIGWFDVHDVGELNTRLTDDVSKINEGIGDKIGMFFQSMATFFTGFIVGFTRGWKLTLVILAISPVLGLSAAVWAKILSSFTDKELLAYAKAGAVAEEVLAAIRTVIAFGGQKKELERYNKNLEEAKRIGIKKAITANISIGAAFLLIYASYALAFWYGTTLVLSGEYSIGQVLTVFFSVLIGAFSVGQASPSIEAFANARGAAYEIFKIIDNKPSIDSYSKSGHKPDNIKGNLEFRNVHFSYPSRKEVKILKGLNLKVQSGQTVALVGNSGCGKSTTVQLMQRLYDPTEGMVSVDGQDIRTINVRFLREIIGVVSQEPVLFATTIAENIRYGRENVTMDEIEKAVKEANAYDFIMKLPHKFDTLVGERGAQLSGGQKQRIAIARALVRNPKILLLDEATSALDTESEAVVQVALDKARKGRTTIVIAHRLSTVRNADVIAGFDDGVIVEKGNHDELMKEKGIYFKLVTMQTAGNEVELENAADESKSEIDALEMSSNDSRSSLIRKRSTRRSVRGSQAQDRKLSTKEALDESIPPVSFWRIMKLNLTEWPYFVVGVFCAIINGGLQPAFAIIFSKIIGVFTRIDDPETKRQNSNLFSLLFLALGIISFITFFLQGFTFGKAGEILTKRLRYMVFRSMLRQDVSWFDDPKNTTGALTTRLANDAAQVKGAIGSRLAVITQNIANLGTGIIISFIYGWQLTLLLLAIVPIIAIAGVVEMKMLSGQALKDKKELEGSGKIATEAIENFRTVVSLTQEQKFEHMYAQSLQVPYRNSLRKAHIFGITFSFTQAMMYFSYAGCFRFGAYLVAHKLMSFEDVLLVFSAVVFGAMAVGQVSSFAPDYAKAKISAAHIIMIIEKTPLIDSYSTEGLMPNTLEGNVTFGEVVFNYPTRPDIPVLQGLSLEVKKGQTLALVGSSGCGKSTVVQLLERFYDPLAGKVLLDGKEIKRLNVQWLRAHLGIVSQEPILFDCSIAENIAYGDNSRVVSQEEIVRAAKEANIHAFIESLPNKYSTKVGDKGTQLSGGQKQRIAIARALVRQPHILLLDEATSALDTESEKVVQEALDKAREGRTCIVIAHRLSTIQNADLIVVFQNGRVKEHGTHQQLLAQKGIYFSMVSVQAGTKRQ
# [7] = Apparent permeability in MDCKII-LE cells; format: ADME, cell-based, Canis lupus familiaris; conditions: dog, MDCK
# [8] = Ex vivo inhibition of PAR-1 in cynomolgus monkey whole blood assessed as inhibition of TRAP-induced platelet aggregation at 1 mg/kg, po measured after 24 hrs; format: functional; conditions: Macaca fascicularis
# [9] = Ex vivo inhibition of PAR-1 in cynomolgus monkey whole blood assessed as inhibition of TRAP-induced platelet aggregation at 0.3 mg/kg, po measured after 24 hrs; format: functional; conditions: Macaca fascicularis
# [10] = molecular target: T2, Voltage-gated inwardly rectifying potassium channel KCNH2; assay: Inhibition of [35S]MK-499 binding to hERG expressed in HEK293 cells at 60 uM; format: toxicity, cell-based
# [11] = Plasma protein binding in dog assessed as unbound fraction; format: ADME, cell-free, Canis lupus familiaris
# P-glycoprotein = assay: Effect on rat P-glycoprotein expressed in MDCK cells assessed as efflux ratio of apparent permeability across basolateral to apical side over apical to basolateral side (reference value: 0.6 to 0.8); format: ADME, cell-based, MDCKII-LE; conditions: MDCK-MDR1
# [12] = Clearance in rat hepatocyte measured per 10^6 cells; format: ADME, cell-based; conditions: hepatocytes
# [13] = Clearance in dog hepatocyte measured per 10^6 cells; format: ADME, cell-based, Canis lupus familiaris; conditions: hepatocytes
# [14] = Clearance in mouse hepatocyte measured per 10^6 cells; format: ADME, cell-based; conditions: hepatocytes
# [15] = Clearance in human hepatocyte measured per 10^6 cells; format: ADME, cell-based; conditions: hepatocytes
# [16] = Clearance in rat at 3 mg/kg, iv; format: ADME, organism-based; conditions: in vivo
# [17] = Clearance in intravenously dosed dog; format: ADME, organism-based, Canis lupus familiaris; conditions: in vivo, iv
# [18] = Clearance in intravenously dosed cynomolgus monkey; format: ADME, organism-based, Macaca fascicularis; conditions: in vivo, iv
# [19] = Unbound clearance in rat at 3 mg/kg, iv; format: ADME, organism-based; conditions: in vivo
# [20] = Unbound clearance in intravenously dosed dog; format: ADME, organism-based, Canis lupus familiaris; conditions: in vivo, iv
# [21] = Unbound clearance in intravenously dosed cynomolgus monkey; format: ADME, organism-based, Macaca fascicularis; conditions: in vivo, iv
# [22] = Volume of distribution in rat at 0.3 mg/kg, iv; format: ADME, organism-based; conditions: in vivo
# [23] = Volume of distribution in intravenously dosed cynomolgus monkey; format: ADME, organism-based, Macaca fascicularis; conditions: in vivo, iv
# [24] = Unbound volume of distribution in rat at 3 mg/kg, iv; format: ADME, organism-based; conditions: in vivo
# [25] = Unbound volume of distribution in intravenously dosed dog; format: ADME, organism-based, Canis lupus familiaris; conditions: in vivo, iv
# [26] = Unbound volume of distribution in intravenously dosed cynomolgus monkey; format: ADME, organism-based, Macaca fascicularis; conditions: in vivo, iv
# [27] = Plasma protein binding in rat assessed as unbound fraction; format: ADME, cell-free
# [28] = Plasma protein binding in cynomolgus monkey assessed as unbound fraction; format: ADME, cell-free, Macaca fascicularis
# [29] = MRT in rat at 3 mg/kg, iv; format: ADME, organism-based; conditions: in vivo
# [30] = MRT in intravenously dosed dog; format: ADME, organism-based, Canis lupus familiaris; conditions: in vivo, iv
# [31] = MRT in intravenously dosed cynomolgus monkey; format: ADME, organism-based, Macaca fascicularis; conditions: in vivo, iv
# [32] = Oral bioavailability in rat; format: ADME, organism-based; conditions: in vivo
# [33] = Oral bioavailability in dog; format: ADME, organism-based, Canis lupus familiaris; conditions: in vivo
# [34] = Oral bioavailability in cynomolgus monkey; format: ADME, organism-based, Macaca fascicularis; conditions: in vivo
smiles,measurement,setting,value
CCOC(=O)N1C[C@H]2[C@H](C)[C@@H](C)[C@H](/C=C/c3ccc(-c4ccccc4C#N)cn3)[C@@H]3[C@@H](C)OC(=O)[C@@]32C1,pIC50,[1],8.40
same,pIC50,[2],5.80
C[C@H]1OC(=O)[C@@H]2CC(F)(F)[C@@H](C)[C@H](c3ccc(-c4cccc(F)c4)cn3)[C@H]12,pIC50,[1],8.30
C[C@@H]1[C@@H](C)[C@@H]2CNC[C@@]23C(=O)O[C@H](C)[C@H]3[C@H]1/C=C/c1ccc(-c2ccccc2C#N)cn1,pIC50,[1],7.85
same,pIC50,[2],5.89
C[C@H]1OC(=O)[C@@H]2CC3(NC(=O)NC3=O)[C@@H](C)[C@H](c3ccc(-c4cccc(F)c4)cn3)[C@H]12 (stereo partly specified),pIC50,[1],6.75
C[C@H]1NC(=O)[C@]2(N)CC(F)(F)[C@@H](C)[C@H](/C=C/c3ccc(-c4ccccc4C#N)cn3)[C@H]12,pIC50,[1],8.22
same,pIC50,[2],4.48
same,MRT,[3],2.7 h
same,MRT,[4],38.4 h
C[C@H]1OC(=O)[C@]2(O)CC(F)(F)[C@@H](C)[C@H](/C=C/c3ccc(-c4ccccc4C#N)cn3)[C@H]12,MRT,[5],20 h
same,MRT,[6],> 20 h
Cc1cccc(-c2ccc(/C=C/[C@@H]3[C@@H]4[C@@H](C)OC(=O)[C@]4(O)CC(F)(F)[C@H]3C)nc2)c1C#N,efflux ratio,P-glycoprotein (ABCB1),1.5
same,pIC50,[1],8.52
same,pIC50,[2],5.05
same,MRT,[5],2.2 h
same,MRT,[4],3.2 h
same,Papp,[7],41.9 ×10⁻⁶ cm/s
same,inhibition in vivo at 1 mg/kg,[8],100%
same,inhibition in vivo at 0.3 mg/kg,[9],100%
same,pIC50,[10],5.05
same,fraction unbound,[11],0.02
same,efflux ratio,P-glycoprotein,3.3
same,CLint,[12],2.3 µL/min/1e6 cells
same,CLint,[13],41.7 µL/min/1e6 cells
same,CLint,[14],11.4 µL/min/1e6 cells
same,CLint,[15],4.3 µL/min/1e6 cells
same,clearance,[16],37 mL/min/kg
same,clearance,[17],26 mL/min/kg
same,clearance,[18],8.6 mL/min/kg
same,CL free,[19],1370 mL/min/kg
same,CL free,[20],1238 mL/min/kg
same,CL free,[21],344 mL/min/kg
same,Vd,[22],3.1 L/kg
same,Vd,[23],1.5 L/kg
same,Vdu,[24],115 L/kg
same,Vdu,[25],171 L/kg
same,Vdu,[26],60 L/kg
same,fraction unbound,[27],0.03
same,fraction unbound,[28],0.02
same,MRT,[29],1.4 h
same,MRT,[30],2.3 h
same,MRT,[31],3 h
same,bioavailability,[32],44%
same,bioavailability,[33],5%
same,bioavailability,[34],57%
CC1=NO[C@@]2(C1)C[C@H]1C(=O)O[C@H](C)[C@H]1[C@@H](c1ccc(-c3cccc(F)c3)cn1)[C@@H]2C,pIC50,[1],6.87
CCNC(=O)N1C[C@H]2[C@H](C)[C@@H](C)[C@H](/C=C/c3ccc(-c4ccccc4C#N)cn3)[C@@H]3[C@@H](C)OC(=O)[C@@]32C1,efflux ratio,P-glycoprotein (ABCB1),> 65
same,pIC50,[1],8.15
same,pIC50,[2],5.04
same,Papp,[7],32.3 ×10⁻⁶ cm/s
same,inhibition in vivo at 1 mg/kg,[8],100%
same,inhibition in vivo at 0.3 mg/kg,[9],100%
same,pIC50,[10],5.05
same,fraction unbound,[11],0.05
same,efflux ratio,P-glycoprotein,> 71
same,CLint,[12],17.2 µL/min/1e6 cells
same,CLint,[13],11.8 µL/min/1e6 cells
same,CLint,[14],19.7 µL/min/1e6 cells
same,CLint,[15],7.3 µL/min/1e6 cells
same,clearance,[16],46 mL/min/kg
same,clearance,[17],5.6 mL/min/kg
same,clearance,[18],7.7 mL/min/kg
same,CL free,[19],742 mL/min/kg
same,CL free,[20],112 mL/min/kg
same,CL free,[21],140 mL/min/kg
same,Vd,[22],1.2 L/kg
same,Vd,[23],0.81 L/kg
same,Vdu,[24],19 L/kg
same,Vdu,[25],42 L/kg
same,Vdu,[26],15 L/kg
same,fraction unbound,[27],0.06
same,fraction unbound,[28],0.06
same,MRT,[29],0.44 h
same,MRT,[30],6.2 h
same,MRT,[31],1.8 h
same,bioavailability,[32],10%
same,bioavailability,[33],19%
same,bioavailability,[34],13%
C[C@H]1[C@H](c2ccc(-c3cccc(F)c3)cn2)[C@@H]2[C@@H](C)OC(=O)[C@@H]2C[C@@H]1C,pIC50,[1],8.52
C[C@H]1OC(=O)[C@]2(O)CC(F)(F)[C@@H](C)[C@H](/C=C/c3ccc(-c4cccc(F)c4)cn3)[C@H]12,pIC50,[1],8.10
same,pIC50,[2],4.54
same,MRT,[6],68 h
C[C@@H]1[C@@H](C)[C@@H]2CN(C)C[C@@]23C(=O)O[C@H](C)[C@H]3[C@H]1/C=C/c1ccc(-c2ccccc2C#N)cn1,pIC50,[1],7.55
same,pIC50,[2],4.83
CC[C@H]1[C@H](/C=C/c2ccc(-c3ccccc3C#N)cn2)[C@@H]2[C@@H](C)OC(=O)[C@]2(O)CC1(F)F,pIC50,[1],8.10
same,pIC50,[2],4.77
same,MRT,[5],5.5 h
same,MRT,[6],> 20 h
CNC(=O)N1C[C@H]2[C@H](C)[C@@H](C)[C@H](/C=C/c3ccc(-c4ccccc4C#N)cn3)[C@@H]3[C@@H](C)OC(=O)[C@@]32C1,pIC50,[1],8.15
same,pIC50,[2],4.30
